Results taken from patent US12365696B2, “Small-molecule focal adhesion kinase (FAK) inhibitors” (DANA-FARBER CANCER INSTITUTE, INC., priority 2019, dated 2025).

Legend:
Experiment in all cases: KINOMEscan
Format in all cases: binding
PKAC-alpha = PKAC-alpha (Homo sapiens (Human), UniProt P17612); conditions: 10000 nM, read-out: Percent Control
CAMK1D = CAMK1D (Homo sapiens (Human), UniProt Q8IU85); conditions: 10000 nM, read-out: Percent Control
MAP4K5 = MAP4K5 (Homo sapiens (Human), UniProt Q9Y4K4); conditions: MAP4K5, 10000 nM; read-out: Percent Control
IKK-beta = IKK-beta (Homo sapiens (Human), UniProt O14920); conditions: 10000 nM, read-out: Percent Control
PYK2 = PYK2 (Homo sapiens (Human), UniProt Q14289); conditions: PYK2, 10000 nM; read-out: Percent Control
EPHB4 = EPHB4 (Homo sapiens (Human), UniProt P54760); conditions: EPHB4, 10000 nM; read-out: Percent Control
NDR2 = NDR2 (Homo sapiens (Human), UniProt Q9Y2H1); conditions: NDR2, 10000 nM; read-out: Percent Control
CAMK1 = CAMK1 (Homo sapiens (Human), UniProt Q14012); conditions: CAMK1, 10000 nM; read-out: Percent Control
EPHA1 = EPHA1 (Homo sapiens (Human), UniProt P21709); conditions: EPHA1, 10000 nM; read-out: Percent Control
CAMK1B = CAMK1B (Homo sapiens (Human), UniProt Q6P2M8); conditions: 10000 nM, read-out: Percent Control
PRKD1 = PRKD1 (Homo sapiens (Human), UniProt Q15139); conditions: PRKD1, 10000 nM; read-out: Percent Control
EPHA8 = EPHA8 (Homo sapiens (Human), UniProt P29322); conditions: EPHA8, 10000 nM; read-out: Percent Control
EGFR(L858R) = EGFR(L858R) (Homo sapiens (Human), UniProt P00533, L858R); conditions: 10000 nM, read-out: Percent Control
CAMK2G = CAMK2G (Homo sapiens (Human), UniProt Q13555); conditions: 10000 nM, read-out: Percent Control
Chain of CAMK2G (Q13555 whole entry): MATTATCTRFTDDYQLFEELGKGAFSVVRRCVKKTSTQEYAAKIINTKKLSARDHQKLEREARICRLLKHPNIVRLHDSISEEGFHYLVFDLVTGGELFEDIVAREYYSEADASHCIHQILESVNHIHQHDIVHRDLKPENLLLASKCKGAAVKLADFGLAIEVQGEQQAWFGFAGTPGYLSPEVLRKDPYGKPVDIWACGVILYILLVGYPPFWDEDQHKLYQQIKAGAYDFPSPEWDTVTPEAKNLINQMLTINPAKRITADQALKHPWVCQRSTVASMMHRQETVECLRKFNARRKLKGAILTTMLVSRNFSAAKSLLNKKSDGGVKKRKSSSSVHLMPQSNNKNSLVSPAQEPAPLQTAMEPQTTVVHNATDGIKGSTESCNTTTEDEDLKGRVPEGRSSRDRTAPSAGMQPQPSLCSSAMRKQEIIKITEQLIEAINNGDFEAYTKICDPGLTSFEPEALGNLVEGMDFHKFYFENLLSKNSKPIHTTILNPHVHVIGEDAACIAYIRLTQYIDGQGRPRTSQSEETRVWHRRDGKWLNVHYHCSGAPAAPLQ

MKNK2 = MKNK2 (Homo sapiens (Human), UniProt Q9HBH9); conditions: MKNK2, 10000 nM; read-out: Percent Control
WNK1 = WNK1 (Homo sapiens (Human), UniProt Q9H4A3); conditions: WNK1, 10000 nM; read-out: Percent Control
[1] = molecular target: TYK2(JH1domain-catalytic) (Homo sapiens (Human), UniProt P29597); conditions: 10000 nM, read-out: Percent Control
Chain of TYK2(JH1domain-catalytic) (P29597 897-1176): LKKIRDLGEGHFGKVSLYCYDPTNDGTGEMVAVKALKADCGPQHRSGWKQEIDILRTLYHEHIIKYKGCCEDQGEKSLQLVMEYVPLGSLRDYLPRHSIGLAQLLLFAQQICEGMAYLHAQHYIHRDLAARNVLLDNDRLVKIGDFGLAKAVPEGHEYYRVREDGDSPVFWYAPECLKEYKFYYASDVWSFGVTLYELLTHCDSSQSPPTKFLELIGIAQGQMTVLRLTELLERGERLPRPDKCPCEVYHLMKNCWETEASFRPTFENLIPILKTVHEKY

[2] = molecular target: ABL1(F317L)-phosphorylated (Homo sapiens (Human), UniProt P00519, F317L); conditions: 10000 nM, read-out: Percent Control
CASK = CASK (Homo sapiens (Human), UniProt O14936); conditions: 10000 nM, read-out: Percent Control
TEC = TEC (Homo sapiens (Human), UniProt P42680); conditions: 10000 nM, read-out: Percent Control
MST1 = MST1 (Homo sapiens (Human), UniProt Q13043); conditions: MST1, 10000 nM; read-out: Percent Control
VRK2 = VRK2 (Homo sapiens (Human), UniProt Q86Y07); conditions: VRK2, 10000 nM; read-out: Percent Control
GRK3 = GRK3 (Homo sapiens (Human), UniProt P35626); conditions: GRK3, 10000 nM; read-out: Percent Control
CAMK2B = CAMK2B (Homo sapiens (Human), UniProt Q13554); conditions: 10000 nM, read-out: Percent Control
MLK3 = MLK3 (Homo sapiens (Human), UniProt Q16584); conditions: MLK3, 10000 nM; read-out: Percent Control
Chain of MLK3 (Q16584 whole entry): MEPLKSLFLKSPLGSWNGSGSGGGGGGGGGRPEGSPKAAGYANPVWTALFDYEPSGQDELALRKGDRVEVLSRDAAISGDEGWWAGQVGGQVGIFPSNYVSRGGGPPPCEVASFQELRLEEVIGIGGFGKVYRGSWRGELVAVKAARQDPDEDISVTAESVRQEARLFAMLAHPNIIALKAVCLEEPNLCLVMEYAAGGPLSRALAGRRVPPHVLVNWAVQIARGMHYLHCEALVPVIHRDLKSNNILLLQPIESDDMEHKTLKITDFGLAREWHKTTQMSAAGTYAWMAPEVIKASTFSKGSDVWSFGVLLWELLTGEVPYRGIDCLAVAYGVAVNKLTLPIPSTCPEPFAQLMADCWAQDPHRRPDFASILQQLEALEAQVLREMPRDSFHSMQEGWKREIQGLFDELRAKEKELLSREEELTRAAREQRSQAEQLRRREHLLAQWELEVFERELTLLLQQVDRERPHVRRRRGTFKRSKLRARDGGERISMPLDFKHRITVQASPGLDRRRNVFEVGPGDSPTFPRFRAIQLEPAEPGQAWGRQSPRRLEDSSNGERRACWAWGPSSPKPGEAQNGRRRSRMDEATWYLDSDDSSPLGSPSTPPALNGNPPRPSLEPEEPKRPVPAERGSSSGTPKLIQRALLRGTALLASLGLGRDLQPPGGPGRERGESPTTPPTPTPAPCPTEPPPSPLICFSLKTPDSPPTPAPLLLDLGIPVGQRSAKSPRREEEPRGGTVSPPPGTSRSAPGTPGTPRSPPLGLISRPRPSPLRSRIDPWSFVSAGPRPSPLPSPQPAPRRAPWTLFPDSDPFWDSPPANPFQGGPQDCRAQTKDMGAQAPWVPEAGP

DMPK2 = DMPK2 (Homo sapiens (Human), UniProt Q6DT37); conditions: DMPK2, 10000 nM; read-out: Percent Control
TXK = TXK (Homo sapiens (Human), UniProt P42681); conditions: 10000 nM, read-out: Percent Control
PIK3CA = PIK3CA (Homo sapiens (Human), UniProt P42336); conditions: 10000 nM, read-out: Percent Control
BMX = BMX (Homo sapiens (Human), UniProt P51813); conditions: 10000 nM, read-out: Percent Control
FGFR4 = FGFR4 (Homo sapiens (Human), UniProt P22455); conditions: FGFR4, 10000 nM; read-out: Percent Control
S6K1 = S6K1 (Homo sapiens (Human), UniProt P23443); conditions: S6K1, 10000 nM; read-out: Percent Control
TRKB = TRKB (Homo sapiens (Human), UniProt Q16620); conditions: 10000 nM, read-out: Percent Control
Chain of TRKB (Q16620 32-822): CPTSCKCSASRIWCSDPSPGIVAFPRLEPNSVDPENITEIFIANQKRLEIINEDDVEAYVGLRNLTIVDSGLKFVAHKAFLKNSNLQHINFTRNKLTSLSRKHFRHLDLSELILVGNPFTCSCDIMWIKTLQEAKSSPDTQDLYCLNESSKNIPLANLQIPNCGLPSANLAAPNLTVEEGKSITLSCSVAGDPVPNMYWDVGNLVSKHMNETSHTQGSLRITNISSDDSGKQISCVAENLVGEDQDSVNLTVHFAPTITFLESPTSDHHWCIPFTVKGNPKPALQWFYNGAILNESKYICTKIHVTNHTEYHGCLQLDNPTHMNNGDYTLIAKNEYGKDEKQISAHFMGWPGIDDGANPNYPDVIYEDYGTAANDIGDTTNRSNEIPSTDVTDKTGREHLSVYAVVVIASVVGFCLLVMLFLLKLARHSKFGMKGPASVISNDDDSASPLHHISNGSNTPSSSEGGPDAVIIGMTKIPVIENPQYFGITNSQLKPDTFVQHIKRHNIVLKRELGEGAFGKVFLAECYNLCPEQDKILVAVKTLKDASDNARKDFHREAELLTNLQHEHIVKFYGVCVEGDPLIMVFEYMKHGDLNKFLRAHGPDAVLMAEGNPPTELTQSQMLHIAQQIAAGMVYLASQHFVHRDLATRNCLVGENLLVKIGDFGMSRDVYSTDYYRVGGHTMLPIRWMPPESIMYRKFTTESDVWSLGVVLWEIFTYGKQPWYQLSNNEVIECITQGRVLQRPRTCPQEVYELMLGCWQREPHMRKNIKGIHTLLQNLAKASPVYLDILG

MET(Y1235D) = MET(Y1235D) (Homo sapiens (Human), UniProt P08581, Y1235D); conditions: 10000 nM, read-out: Percent Control
Chain of MET(Y1235D) (P08581 25-1390 Y1235D): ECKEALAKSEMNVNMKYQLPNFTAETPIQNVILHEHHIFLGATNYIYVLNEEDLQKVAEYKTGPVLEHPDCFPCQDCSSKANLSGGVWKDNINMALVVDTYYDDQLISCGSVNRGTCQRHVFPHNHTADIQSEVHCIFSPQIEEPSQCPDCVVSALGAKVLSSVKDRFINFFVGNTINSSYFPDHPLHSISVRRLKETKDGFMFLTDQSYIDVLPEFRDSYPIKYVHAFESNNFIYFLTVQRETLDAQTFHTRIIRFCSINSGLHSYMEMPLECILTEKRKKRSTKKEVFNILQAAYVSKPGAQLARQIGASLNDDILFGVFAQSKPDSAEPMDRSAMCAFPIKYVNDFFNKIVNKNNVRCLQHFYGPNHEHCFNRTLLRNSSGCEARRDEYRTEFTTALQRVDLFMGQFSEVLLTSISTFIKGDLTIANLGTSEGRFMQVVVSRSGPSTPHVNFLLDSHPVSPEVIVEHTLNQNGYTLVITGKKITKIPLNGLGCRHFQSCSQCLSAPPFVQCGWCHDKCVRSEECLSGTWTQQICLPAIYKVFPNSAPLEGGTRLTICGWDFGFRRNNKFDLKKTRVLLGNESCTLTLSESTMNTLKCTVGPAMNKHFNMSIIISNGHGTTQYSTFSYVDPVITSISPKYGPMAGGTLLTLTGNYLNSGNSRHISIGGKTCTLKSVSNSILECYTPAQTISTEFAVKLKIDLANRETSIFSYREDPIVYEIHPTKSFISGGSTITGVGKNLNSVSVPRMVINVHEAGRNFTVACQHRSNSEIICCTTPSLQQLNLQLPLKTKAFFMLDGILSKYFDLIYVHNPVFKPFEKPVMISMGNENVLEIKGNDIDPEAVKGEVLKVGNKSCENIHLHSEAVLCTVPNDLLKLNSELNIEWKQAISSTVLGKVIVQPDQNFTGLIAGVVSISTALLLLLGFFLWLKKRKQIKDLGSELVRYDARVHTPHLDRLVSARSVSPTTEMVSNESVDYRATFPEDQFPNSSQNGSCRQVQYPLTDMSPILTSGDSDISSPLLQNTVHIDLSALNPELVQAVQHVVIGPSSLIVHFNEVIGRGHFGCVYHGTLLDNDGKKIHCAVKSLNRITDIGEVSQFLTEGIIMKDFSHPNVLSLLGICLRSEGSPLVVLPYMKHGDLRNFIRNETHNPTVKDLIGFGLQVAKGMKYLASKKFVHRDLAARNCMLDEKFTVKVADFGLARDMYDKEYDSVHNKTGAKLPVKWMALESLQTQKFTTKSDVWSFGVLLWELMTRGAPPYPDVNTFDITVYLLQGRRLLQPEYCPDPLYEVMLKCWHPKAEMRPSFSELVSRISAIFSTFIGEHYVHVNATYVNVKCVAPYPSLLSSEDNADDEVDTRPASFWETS

MARK3 = MARK3 (Homo sapiens (Human), UniProt P27448); conditions: MARK3, 10000 nM; read-out: Percent Control
Chain of MARK3 (P27448 whole entry): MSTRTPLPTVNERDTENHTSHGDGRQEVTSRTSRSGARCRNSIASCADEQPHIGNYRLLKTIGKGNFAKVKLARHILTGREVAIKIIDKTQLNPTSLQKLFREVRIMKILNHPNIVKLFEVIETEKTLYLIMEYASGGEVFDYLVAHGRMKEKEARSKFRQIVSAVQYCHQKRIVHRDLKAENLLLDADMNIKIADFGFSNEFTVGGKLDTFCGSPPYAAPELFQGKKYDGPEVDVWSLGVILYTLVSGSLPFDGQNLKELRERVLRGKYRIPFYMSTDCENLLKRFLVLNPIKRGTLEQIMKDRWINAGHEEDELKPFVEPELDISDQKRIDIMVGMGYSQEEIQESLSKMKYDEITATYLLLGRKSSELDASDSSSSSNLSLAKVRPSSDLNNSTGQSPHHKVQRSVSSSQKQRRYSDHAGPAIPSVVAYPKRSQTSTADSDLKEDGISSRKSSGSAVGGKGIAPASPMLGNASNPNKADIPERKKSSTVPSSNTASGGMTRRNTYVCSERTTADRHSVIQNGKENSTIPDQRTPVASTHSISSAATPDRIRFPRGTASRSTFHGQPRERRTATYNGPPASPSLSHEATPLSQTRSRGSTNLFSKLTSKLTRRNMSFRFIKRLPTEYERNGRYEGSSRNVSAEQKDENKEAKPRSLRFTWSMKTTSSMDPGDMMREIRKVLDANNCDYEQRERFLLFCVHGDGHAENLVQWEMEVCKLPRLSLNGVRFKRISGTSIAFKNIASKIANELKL

FER = FER (Homo sapiens (Human), UniProt P16591); conditions: 10000 nM, read-out: Percent Control

Chain of CAMK1D (Q8IU85 whole entry): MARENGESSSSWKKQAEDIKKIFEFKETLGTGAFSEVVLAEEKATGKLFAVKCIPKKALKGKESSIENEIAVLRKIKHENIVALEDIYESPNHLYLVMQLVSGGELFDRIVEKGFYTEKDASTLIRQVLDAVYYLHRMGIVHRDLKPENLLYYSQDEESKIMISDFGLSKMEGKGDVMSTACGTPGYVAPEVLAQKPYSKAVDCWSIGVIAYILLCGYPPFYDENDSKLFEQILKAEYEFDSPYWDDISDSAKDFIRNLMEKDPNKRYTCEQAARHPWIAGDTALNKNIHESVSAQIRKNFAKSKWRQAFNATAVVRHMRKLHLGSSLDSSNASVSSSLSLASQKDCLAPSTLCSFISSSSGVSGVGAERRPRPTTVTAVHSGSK

SMILES | remaining binding at 10 µM (PKAC-alpha) [%] | remaining binding at 10 µM (CAMK1D) [%] | remaining binding at 10 µM (MAP4K5) [%] | remaining binding at 10 µM (IKK-beta) [%] | remaining binding at 10 µM (PYK2) [%] | remaining binding at 10 µM (EPHB4) [%] | remaining binding at 10 µM (NDR2) [%] | remaining binding at 10 µM (CAMK1) [%] | remaining binding at 10 µM (EPHA1) [%] | remaining binding at 10 µM (CAMK1B) [%] | remaining binding at 10 µM (PRKD1) [%] | remaining binding at 10 µM (EPHA8) [%] | remaining binding at 10 µM (EGFR(L858R)) [%] | remaining binding at 10 µM (CAMK2G) [%] | remaining binding at 10 µM (MKNK2) [%] | remaining binding at 10 µM (WNK1) [%] | remaining binding at 10 µM [1] [%] | remaining binding at 10 µM [2] [%] | remaining binding at 10 µM (CASK) [%] | remaining binding at 10 µM (TEC) [%] | also measured
COc1cc(N2CCC(N3CCN(C)CC3)CC2)ccc1Nc1ncc2c(n1)N(C)c1sc(C)nc1C(=O)N2 [Compound 3, 6-((2-methoxy-4-(4-(4-methylpiperazin-1-yl)piperidin-1-yl)phenyl)amino)-2,4-dimethyl-4,9-dihydro-10H-pyrimido[5,4-b]thiazolo[5,4-e][1,4]diazepin-10-one] | 72 | 98 | 82 | 100 | 41 | 61 | 86 | 100 | 54 | 95 | 78 | 64 | 79 | 79 | 80 | 100 | 84 | 10 | 83 | 69 | remaining binding at 10 µM (MST1): 89%; remaining binding at 10 µM (VRK2): 91%; remaining binding at 10 µM (GRK3): 100%; remaining binding at 10 µM (CAMK2B): 81%; remaining binding at 10 µM (MLK3): 73%; remaining binding at 10 µM (DMPK2): 91%; remaining binding at 10 µM (TXK): 73%; remaining binding at 10 µM (PIK3CA): 100%; remaining binding at 10 µM (BMX): 76%; remaining binding at 10 µM (FGFR4): 90%; remaining binding at 10 µM (S6K1): 100%; remaining binding at 10 µM (TRKB): 100%; remaining binding at 10 µM (MET(Y1235D)): 90%; remaining binding at 10 µM (MARK3): 96%; remaining binding at 10 µM (FER): 74%
COc1cc(N2CCC(N3CCN(C)CC3)CC2)ccc1Nc1ncc2c(n1)N(C)c1sc(C)nc1C(=O)N2C [Compound 5, 6-((2-methoxy-4-(4-(4-methylpiperazin-1-yl)piperidin-1-yl)phenyl)amino)-2,4,9-trimethyl-4,9-dihydro-10H-pyrimido[5,4-b]thiazolo[5,4-e][1,4]diazepin-10-one] | 100 | 86 | 91 | 96 | 85 | 100 | 64 | 92 | 100 | 92 | 43 | 100 | 100 | 97 | 90 | 89 | 97 | 39 | 100 | 100 | remaining binding at 10 µM (MST1): 100%; remaining binding at 10 µM (VRK2): 97%; remaining binding at 10 µM (GRK3): 81%; remaining binding at 10 µM (CAMK2B): 93%; remaining binding at 10 µM (MLK3): 100%; remaining binding at 10 µM (DMPK2): 93%; remaining binding at 10 µM (TXK): 99%; remaining binding at 10 µM (PIK3CA): 100%; remaining binding at 10 µM (BMX): 90%; remaining binding at 10 µM (FGFR4): 88%; remaining binding at 10 µM (S6K1): 100%; remaining binding at 10 µM (TRKB): 100%; remaining binding at 10 µM (MET(Y1235D)): 98%; remaining binding at 10 µM (MARK3): 81%; remaining binding at 10 µM (FER): 57%
